Assay results taken from patent US11999956B2, “Targeted therapy composition and its use for suppressing breast cancer cell proliferation, migration or invasion” (NATIONAL CHENG KUNG UNIVERSITY, priority 2021, dated 2024).

Assays:
AMPK-α1 and AMPK-α2 = assay: Western blot, effect of Metformin on AMPK signaling pathway in SKBR3 cells; format: cell-based, human
Experimental: Cells were lyzed in a radioimmunoprecipitation assay (RIPA) lysis buffer (Thermo Fisher Scientific Inc., Waltham, MA) and protease inhibitors (Thermo Fisher Scientific Inc., Waltham, MA) were used for protein extraction. Briefly, a total of 30 μg of protein was prepared on a 6 to 12% SDS-PAGE and transferred to a 0.2 to 0.45 μm polyvinylidene difluoride membrane (Stratagene, La Jolla, CA) and blocked by 5% milk (non-fat milk) in Tris Buffered Saline Buffer with Tween 20 (TBST). The membrane was hybridized with primary antibody at 4° C. overnight. The following day, after being washed with TBST for three times, membranes were incubated with secondary antibodies (anti-rabbit or anti-mouse IgG antibody) for 1 hour at room temperature. Detection of protein bands was performed using enhanced chemiluminescence system (Amersham ECL Plus; GE Healthcare, Piscataway, NJ).
Please refer to FIGS. 12A to 12B. The potential impact of EMP3 on sensitivity to Metformin in SKBR3 cells in vitro was illustrated therein. […] That means knocking down of EMP3 raises survival rate of breast cancer cells upon treatment of Metformin, which may imply a desensitizing effect of EMP3 on breast cancer cells in upon Metformin treatment. […] As well-known in the field of endeavor, interference of cross-talk between AMPK and Wnt/β-catenin signaling pathways may decelerate cell growth of breast cancer cells. […]

SKBR3 cells = assay: IC50 of Metformin in SKBR3/Vec and SKBR3/siEMP3 cells; format: cell-based, human; conditions: 72 hours post treatment; SKBR3/siEMP3 vs SKBR3/Vec
From the text: Please refer to FIGS. 12A to 12B. The potential impact of EMP3 on sensitivity to Metformin in SKBR3 cells in vitro was illustrated therein. […] That means knocking down of EMP3 raises survival rate of breast cancer cells upon treatment of Metformin, which may imply a desensitizing effect of EMP3 on breast cancer cells in upon Metformin treatment. […] As well-known in the field of endeavor, interference of cross-talk between AMPK and Wnt/β-catenin signaling pathways may decelerate cell growth of breast cancer cells. In example 7, the intervention level of Metformin to AMPK in SKBR3/Vec and SKBR3/siEMP3 cancer cells was verified.

IC50 values for Metformin in SKBR3/siEMP3 cells relative to vector control (SKBR3 cells): higher
SMILES: CN(C)C(=N)N=C(N)N [Metformin]
AMPK-α1 expression (AMPK-α1 and AMPK-α2): down-regulated
AMPK-α2 expression (AMPK-α1 and AMPK-α2): down-regulated
